How the values were obtained:
[1] = target: Cyclin-dependent kinase 4 (Homo sapiens) (UniProt P11802); assay: Inhibition of CDK4 (unknown origin) assessed as residual activity at 1000 nM by KINOMEscan analysis relative to control
[2] = target: T1, Serine/threonine-protein kinase BRSK1 (Homo sapiens) (UniProt Q8TDC3); assay: Inhibition of BRSK1 (unknown origin) assessed as residual activity at 100 nM by KINOMEscan analysis relative to control
T1 sequence (whole entry): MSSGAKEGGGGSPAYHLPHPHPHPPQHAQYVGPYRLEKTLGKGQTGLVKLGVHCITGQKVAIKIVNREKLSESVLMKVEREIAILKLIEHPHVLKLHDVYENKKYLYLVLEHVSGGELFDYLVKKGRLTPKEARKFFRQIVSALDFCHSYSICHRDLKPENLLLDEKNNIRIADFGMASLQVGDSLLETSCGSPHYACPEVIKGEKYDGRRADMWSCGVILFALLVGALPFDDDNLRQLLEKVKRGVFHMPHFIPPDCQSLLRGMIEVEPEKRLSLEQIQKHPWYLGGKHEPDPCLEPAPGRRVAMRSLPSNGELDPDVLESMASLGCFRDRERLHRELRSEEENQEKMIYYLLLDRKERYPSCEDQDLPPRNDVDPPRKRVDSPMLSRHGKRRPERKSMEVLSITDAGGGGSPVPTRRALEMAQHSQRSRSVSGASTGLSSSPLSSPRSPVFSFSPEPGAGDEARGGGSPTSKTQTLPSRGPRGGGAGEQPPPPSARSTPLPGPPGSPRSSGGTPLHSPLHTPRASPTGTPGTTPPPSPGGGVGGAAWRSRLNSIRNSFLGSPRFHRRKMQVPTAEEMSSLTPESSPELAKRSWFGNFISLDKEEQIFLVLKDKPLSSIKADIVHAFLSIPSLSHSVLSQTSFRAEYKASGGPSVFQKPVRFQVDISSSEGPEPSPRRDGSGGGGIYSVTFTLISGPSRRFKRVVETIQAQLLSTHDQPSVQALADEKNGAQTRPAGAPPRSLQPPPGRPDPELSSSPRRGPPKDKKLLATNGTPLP

[3] = target: Receptor tyrosine-protein kinase erbB-4 (Homo sapiens) (UniProt Q15303); assay: Inhibition of ERBB4 (unknown origin) assessed as residual activity at 100 nM by KINOMEscan analysis relative to control
Receptor tyrosine-protein kinase erbB-4 (Homo sapiens), sequence (Q15303 whole entry): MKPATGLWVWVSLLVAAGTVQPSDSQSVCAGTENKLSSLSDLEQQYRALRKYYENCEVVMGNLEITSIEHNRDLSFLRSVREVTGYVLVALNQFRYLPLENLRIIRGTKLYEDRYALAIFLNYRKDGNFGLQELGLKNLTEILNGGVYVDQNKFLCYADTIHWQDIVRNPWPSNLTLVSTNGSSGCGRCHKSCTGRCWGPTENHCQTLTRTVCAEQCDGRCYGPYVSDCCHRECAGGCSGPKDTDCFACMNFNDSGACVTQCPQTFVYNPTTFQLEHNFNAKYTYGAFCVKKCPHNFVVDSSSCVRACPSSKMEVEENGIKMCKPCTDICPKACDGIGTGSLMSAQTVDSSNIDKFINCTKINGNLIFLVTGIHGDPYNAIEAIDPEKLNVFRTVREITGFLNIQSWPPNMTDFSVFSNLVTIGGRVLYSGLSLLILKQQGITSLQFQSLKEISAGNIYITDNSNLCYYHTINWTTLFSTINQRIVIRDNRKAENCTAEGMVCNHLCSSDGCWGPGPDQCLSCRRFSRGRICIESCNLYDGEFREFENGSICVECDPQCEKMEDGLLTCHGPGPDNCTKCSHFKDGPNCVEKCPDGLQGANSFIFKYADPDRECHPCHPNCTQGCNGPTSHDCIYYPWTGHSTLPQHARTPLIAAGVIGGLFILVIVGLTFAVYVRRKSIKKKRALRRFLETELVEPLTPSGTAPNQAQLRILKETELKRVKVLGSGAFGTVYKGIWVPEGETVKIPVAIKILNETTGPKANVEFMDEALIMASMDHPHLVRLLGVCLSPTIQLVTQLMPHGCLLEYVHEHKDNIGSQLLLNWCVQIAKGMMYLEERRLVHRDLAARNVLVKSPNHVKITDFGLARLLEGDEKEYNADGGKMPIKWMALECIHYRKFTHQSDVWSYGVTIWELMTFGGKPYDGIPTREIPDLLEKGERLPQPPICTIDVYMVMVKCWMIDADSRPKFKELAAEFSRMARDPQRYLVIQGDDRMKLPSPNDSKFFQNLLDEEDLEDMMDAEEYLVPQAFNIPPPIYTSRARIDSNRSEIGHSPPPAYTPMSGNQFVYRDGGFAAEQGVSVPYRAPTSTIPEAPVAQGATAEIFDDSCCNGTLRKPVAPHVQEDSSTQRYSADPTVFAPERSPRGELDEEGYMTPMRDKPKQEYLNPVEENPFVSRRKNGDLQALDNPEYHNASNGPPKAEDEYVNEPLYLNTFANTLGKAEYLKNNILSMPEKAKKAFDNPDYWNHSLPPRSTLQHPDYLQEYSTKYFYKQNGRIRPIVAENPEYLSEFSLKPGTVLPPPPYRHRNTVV

[4] = target: Ephrin type-A receptor 5 (Homo sapiens) (UniProt P54756); assay: Inhibition of EPHA5 (unknown origin) assessed as residual activity at 100 nM by KINOMEscan analysis relative to control
Ephrin type-A receptor 5 (Homo sapiens), sequence (P54756 whole entry): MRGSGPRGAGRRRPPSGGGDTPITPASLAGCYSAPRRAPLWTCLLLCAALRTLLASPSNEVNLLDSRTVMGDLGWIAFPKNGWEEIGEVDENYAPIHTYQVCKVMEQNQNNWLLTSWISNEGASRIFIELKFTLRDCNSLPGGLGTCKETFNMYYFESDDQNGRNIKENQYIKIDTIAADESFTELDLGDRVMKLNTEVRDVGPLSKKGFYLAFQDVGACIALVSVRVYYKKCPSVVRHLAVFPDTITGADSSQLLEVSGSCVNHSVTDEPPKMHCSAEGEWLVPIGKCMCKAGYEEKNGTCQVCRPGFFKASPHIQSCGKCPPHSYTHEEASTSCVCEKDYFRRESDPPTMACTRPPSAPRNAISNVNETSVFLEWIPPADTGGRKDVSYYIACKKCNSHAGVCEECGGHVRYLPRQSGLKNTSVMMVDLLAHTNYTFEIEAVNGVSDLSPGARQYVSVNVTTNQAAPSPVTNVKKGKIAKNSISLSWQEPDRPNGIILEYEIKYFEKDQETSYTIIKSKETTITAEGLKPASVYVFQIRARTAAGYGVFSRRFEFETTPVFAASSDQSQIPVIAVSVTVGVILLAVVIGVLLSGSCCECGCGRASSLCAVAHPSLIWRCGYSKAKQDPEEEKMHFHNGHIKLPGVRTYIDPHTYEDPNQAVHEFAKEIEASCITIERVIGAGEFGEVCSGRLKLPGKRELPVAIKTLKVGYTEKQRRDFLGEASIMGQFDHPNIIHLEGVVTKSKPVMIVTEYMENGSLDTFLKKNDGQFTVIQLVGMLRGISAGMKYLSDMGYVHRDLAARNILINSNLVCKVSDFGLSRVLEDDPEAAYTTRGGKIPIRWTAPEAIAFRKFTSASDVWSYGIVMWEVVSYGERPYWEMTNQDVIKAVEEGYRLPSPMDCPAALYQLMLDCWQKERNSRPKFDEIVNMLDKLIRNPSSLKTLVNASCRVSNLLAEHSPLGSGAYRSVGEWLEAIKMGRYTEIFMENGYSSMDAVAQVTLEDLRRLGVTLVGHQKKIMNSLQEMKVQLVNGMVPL

[5] = target: Angiopoietin-1 receptor (Homo sapiens) (UniProt Q02763); assay: Inhibition of TIE2 (unknown origin) assessed as residual activity at 100 nM by KINOMEscan analysis relative to control
Angiopoietin-1 receptor (Homo sapiens), sequence (Q02763 whole entry): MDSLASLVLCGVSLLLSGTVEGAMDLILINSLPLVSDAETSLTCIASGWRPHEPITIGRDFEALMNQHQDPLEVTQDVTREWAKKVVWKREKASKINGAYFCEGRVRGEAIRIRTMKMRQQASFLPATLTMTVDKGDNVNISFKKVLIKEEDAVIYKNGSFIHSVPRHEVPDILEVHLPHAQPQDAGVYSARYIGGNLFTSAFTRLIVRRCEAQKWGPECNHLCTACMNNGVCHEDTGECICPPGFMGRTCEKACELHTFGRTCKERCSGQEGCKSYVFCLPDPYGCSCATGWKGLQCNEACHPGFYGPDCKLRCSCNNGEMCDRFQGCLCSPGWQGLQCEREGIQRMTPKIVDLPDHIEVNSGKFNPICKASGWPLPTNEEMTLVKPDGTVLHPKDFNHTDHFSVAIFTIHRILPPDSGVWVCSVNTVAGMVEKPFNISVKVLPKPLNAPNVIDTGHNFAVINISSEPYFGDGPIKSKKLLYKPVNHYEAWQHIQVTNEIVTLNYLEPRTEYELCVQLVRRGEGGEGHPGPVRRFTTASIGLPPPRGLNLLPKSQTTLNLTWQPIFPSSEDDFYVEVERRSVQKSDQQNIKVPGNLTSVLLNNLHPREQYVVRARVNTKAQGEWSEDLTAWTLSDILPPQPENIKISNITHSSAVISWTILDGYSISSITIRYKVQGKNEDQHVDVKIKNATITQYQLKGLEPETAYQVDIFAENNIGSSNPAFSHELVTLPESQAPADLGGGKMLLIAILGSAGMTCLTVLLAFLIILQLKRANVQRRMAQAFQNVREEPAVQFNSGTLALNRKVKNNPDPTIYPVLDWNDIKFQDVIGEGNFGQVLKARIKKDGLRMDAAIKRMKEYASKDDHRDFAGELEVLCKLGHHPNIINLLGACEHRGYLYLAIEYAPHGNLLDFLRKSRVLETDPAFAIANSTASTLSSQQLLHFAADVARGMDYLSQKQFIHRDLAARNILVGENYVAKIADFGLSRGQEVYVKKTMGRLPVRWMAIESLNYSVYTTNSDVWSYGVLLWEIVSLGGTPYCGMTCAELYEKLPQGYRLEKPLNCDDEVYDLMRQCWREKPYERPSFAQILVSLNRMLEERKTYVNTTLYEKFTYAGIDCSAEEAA

[6] = target: Serine/threonine-protein kinase MAK (Homo sapiens) (UniProt P20794); assay: Inhibition of MAK (unknown origin) assessed as residual activity at 100 nM by KINOMEscan analysis relative to control
Serine/threonine-protein kinase MAK (Homo sapiens), sequence (P20794 whole entry, looked up, canonical isoform): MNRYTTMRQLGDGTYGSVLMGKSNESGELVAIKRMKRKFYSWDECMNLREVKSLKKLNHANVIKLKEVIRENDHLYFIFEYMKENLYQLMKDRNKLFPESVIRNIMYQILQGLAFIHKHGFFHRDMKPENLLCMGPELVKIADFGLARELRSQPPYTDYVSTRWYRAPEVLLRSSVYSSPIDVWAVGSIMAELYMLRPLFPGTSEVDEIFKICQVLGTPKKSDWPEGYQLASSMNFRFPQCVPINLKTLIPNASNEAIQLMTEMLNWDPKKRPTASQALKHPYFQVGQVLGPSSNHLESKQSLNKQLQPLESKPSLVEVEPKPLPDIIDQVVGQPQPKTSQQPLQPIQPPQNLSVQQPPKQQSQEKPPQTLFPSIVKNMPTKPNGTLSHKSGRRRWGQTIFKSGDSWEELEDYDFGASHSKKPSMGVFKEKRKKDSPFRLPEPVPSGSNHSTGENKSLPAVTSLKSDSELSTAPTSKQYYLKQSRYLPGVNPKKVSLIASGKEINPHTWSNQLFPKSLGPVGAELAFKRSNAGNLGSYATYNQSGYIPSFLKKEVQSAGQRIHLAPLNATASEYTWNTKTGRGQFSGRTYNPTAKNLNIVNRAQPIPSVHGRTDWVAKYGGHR

[7] = target: Phosphatidylinositol 4,5-bisphosphate 3-kinase catalytic subunit beta isoform (Homo sapiens) (UniProt P42338); assay: Inhibition of PIK3CB (unknown origin) assessed as residual activity at 100 nM by KINOMEscan analysis relative to control
[8] = target: T2, Megakaryocyte-associated tyrosine-protein kinase (Homo sapiens) (UniProt P42679); assay: Inhibition of CTK (unknown origin) assessed as residual activity at 100 nM by KINOMEscan analysis relative to control
T2 sequence (whole entry): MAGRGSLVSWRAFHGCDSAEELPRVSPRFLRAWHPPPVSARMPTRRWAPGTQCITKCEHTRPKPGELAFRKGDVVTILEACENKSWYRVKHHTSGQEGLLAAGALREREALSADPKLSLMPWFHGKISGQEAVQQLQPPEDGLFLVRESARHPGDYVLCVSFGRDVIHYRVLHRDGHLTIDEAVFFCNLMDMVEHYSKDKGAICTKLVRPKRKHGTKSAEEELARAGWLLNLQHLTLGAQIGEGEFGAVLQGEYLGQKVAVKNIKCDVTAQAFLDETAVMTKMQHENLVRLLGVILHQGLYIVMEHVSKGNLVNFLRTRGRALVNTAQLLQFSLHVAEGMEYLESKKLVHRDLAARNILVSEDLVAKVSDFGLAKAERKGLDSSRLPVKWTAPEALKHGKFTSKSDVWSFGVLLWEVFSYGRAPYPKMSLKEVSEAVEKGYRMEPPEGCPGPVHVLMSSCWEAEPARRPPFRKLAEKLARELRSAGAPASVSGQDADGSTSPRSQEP

[9] = target: T3, Mitogen-activated protein kinase kinase kinase 7 (Homo sapiens) (UniProt O43318); assay: Inhibition of TAK1 (unknown origin) assessed as residual activity at 100 nM by KINOMEscan analysis relative to control
T3 sequence (whole entry): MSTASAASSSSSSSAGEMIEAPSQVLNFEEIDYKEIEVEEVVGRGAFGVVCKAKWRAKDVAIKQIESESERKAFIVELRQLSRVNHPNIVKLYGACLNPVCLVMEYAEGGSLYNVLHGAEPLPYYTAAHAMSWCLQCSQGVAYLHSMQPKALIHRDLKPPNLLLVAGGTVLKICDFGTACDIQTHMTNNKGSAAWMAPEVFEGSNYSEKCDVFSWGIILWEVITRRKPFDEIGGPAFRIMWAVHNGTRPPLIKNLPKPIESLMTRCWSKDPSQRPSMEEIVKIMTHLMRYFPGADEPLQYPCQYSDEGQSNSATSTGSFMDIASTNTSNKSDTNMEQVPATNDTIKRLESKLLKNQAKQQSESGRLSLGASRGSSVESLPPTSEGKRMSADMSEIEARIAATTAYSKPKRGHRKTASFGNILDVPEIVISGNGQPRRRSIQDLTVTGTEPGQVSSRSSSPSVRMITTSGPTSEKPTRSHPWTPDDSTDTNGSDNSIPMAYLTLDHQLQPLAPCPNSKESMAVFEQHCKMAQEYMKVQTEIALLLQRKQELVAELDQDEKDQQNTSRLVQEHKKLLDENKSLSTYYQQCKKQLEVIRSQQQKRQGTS

Cyclin-dependent kinase 4 (Homo sapiens), sequence (P11802 whole entry): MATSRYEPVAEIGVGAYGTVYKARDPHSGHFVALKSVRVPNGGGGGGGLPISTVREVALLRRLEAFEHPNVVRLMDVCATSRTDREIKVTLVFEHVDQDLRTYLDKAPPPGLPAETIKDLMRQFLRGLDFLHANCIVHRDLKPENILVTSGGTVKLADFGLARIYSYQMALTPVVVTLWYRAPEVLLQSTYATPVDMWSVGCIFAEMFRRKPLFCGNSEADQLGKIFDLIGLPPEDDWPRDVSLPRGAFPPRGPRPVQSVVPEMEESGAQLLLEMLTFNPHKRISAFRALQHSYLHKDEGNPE

SMILES | Activity [1] [%] | Activity [2] [%] | Activity [3] [%] | Activity [4] [%] | Activity [5] [%] | Activity [6] [%] | Activity [7] [%] | Activity [8] [%] | Activity [9] [%]
COc1cc2nc(C)nc(N[C@H](C)c3cccc(-c4cn[nH]c4)c3)c2cc1OC | 92 | – | – | – | – | – | – | – | –
COc1cc2ncnc(N[C@H](C)c3cccc4ccccc34)c2cc1OC | – | 100 | 100 | 86 | 68 | 100 | 72 | 64 | 83

From ChEMBL document CHEMBL5678818, “Discovery of potent SOS1 inhibitors that block RAS activation via disruption of the RAS-SOS1 interaction” (Proc Natl Acad Sci U S A, 2019)
